Measured values taken from ChEMBL document CHEMBL1126161, “3,4-Dihydroquinolin-2(1H)-ones as combined inhibitors of thromboxane A2 synthase and cAMP phosphodiesterase” (J Med Chem, 1992).

Columns and labels:
Mus musculus [1] = test: Protection against mortality in pulmonary thromboembolism model in mice at 10 mg/kg; type: functional
Rattus norvegicus [2] = test: Antihypertensive activity in conscious spontaneously hypertensive rat (SHR), percent change in Systolic blood pressure (SBP) at 1 mg/kg peroral dose after 8 hr; type: functional; details: route oral
Rattus norvegicus [3] = test: Antihypertensive activity in conscious spontaneously hypertensive rat (SHR), percent change in heart rate (beats/min) after 12 hr at 1 mg/kg peroral dose; type: functional; details: route oral
Rattus norvegicus [4] = test: Antihypertensive activity in conscious spontaneously hypertensive rat (SHR), percent change in heart rate (beats/min) after 4 hr at 0.3 mg/kg peroral dose; type: functional; details: route oral
Rattus norvegicus [5] = test: Antihypertensive activity in conscious spontaneously hypertensive rat (SHR), percent change in Systolic blood pressure (SBP) at 3 mg/kg peroral dose after 2 hr; type: functional; details: route oral
Rattus norvegicus [6] = test: Antihypertensive activity in conscious spontaneously hypertensive rat (SHR), percent change in Systolic blood pressure (SBP) at 0.3 mg/kg peroral dose after 8 hr; type: functional; details: route oral
Homo sapiens [7] = species on record: Homo sapiens; test: In vitro inhibition of ADP-induced aggregation of human PRP in the presence of pig aortal microsomes (PAM).; type: functional
Mus musculus [8] = test: Protection against mortality in pulmonary thromboembolism model in mice at 1 mg/kg; type: functional
Rattus norvegicus [9] = test: Antihypertensive activity in conscious spontaneously hypertensive rat (SHR), percent change in Systolic blood pressure (SBP) at 0.3 mg/kg peroral dose after 4 hr; type: functional; details: route oral
Rattus norvegicus [10] = test: Ex vivo inhibition of blood platelet aggregation in rats at 50 mg/kg peroral dose after 5 hr; type: functional; details: route oral
Phosphodiesterase 3 = Phosphodiesterase 3 (Homo sapiens, UniProt Q14432+Q13370); test: Inhibition of human blood platelet c-AMP phosphodiesterase
Rattus norvegicus [11] = test: Antihypertensive activity in conscious spontaneously hypertensive rat (SHR), percent change in heart rate (beats/min) after 8 hr at 3 mg/kg peroral dose; type: functional; details: route oral
Mus musculus [12] = test: Time course of protection against mortality in a pulmonary thromboembolism model in mice after -1 hr at 10 mg/kg; type: functional
Rattus norvegicus [13] = test: Antihypertensive activity in conscious spontaneously hypertensive rat (SHR), percent change in heart rate (beats/min) after 1 hr at 0.3 mg/kg peroral dose; type: functional; details: route oral
Rattus norvegicus [14] = test: Antihypertensive activity in conscious spontaneously hypertensive rat (SHR), percent change in Systolic blood pressure (SBP) at 0.3 mg/kg peroral dose after 12 hr; type: functional; details: route oral
Rattus norvegicus [15] = test: Antihypertensive activity in conscious spontaneously hypertensive rat (SHR), percent change in heart rate (beats/min) after 2 hr at 0.3 mg/kg peroral dose; type: functional; details: route oral
Homo sapiens [16] = species on record: Homo sapiens; test: Inhibition of [14C]arachidonic acid induced platelet aggregation at 500 uM (Control 6-keto-PGF1-alpha = 1.45+/-0.6); type: functional
Rattus norvegicus [17] = test: (§1) Antihypertensive activity in conscious spontaneously hypertensive rat (SHR), percent change in heart rate (beats/min) after 1 hr at 3 mg/kg peroral dose; type: functional; details: route oral
Rattus norvegicus [18] = test: Antihypertensive activity in conscious spontaneously hypertensive rat (SHR), percent change in heart rate (beats/min) after 2 hr at 10 mg/kg peroral dose; type: functional; details: route oral
Mus musculus [19] = test: Protection against mortality in pulmonary thromboembolism model in mice at 6 mg/kg; type: functional
Rattus norvegicus [20] = test: Antihypertensive activity in conscious spontaneously hypertensive rat (SHR), percent change in heart rate (beats/min) after 12 hr at 3 mg/kg peroral dose; type: functional; details: route oral
Rattus norvegicus [21] = test: Antihypertensive activity in conscious spontaneously hypertensive rat (SHR), percent change in heart rate (beats/min) after 12 hr at 10 mg/kg peroral dose; type: functional; details: route oral
Rattus norvegicus [22] = test: Antihypertensive activity in conscious spontaneously hypertensive rat (SHR), percent change in Systolic blood pressure (SBP) at 1 mg/kg peroral dose after 2 hr; type: functional; details: route oral
Homo sapiens [23] = species on record: Homo sapiens; test: Ratio of IC50(PDE)/IC50(TXA2); type: functional
Rattus norvegicus [24] = test: as §1; type: functional; details: route oral; remark: listed apart in the source
Homo sapiens [25] = species on record: Homo sapiens; test: Inhibition of ADP-induced aggregation of human PRP in the absence of pig aortal microsomes (PAM); type: functional
Homo sapiens [26] = species on record: Homo sapiens; test: Inhibition of [14C]arachidonic acid induced platelet aggregation at 500 uM (Control TXB2 = 14.9+/-2.5); type: functional

Compound: O=C1CCc2cc(/C=C/n3ccnc3)ccc2N1
- survival at 10 mg/kg (Mus musculus [1]): 90%
- Change in systolic BP (Rattus norvegicus [2]): -9%
- Change in heart rate (Rattus norvegicus [3]): 1%
- Change in heart rate (Rattus norvegicus [4]): -4%
- Change in systolic BP (Rattus norvegicus [5]): -40%
- Change in systolic BP (Rattus norvegicus [6]): -5%
- IC50 (Homo sapiens [7]): 1.2 µM
- survival at 1 mg/kg (Mus musculus [8]): 10%
- Change in systolic BP (Rattus norvegicus [9]): -28%
- inhibition in vivo at 50 mg/kg (Rattus norvegicus [10]): 95.9%
- IC50 (Phosphodiesterase 3): 6.4 µM
- Change in heart rate (Rattus norvegicus [11]): 21%
- survival at 10 mg/kg (Mus musculus [12]): 50%
- Change in heart rate (Rattus norvegicus [13]): 3%
- Change in systolic BP (Rattus norvegicus [14]): 1%
- Change in heart rate (Rattus norvegicus [15]): -13%
- inhibition at 500 µM (Homo sapiens [16]): 21.1%
- Change in heart rate (Rattus norvegicus [17]): -34%
- Change in heart rate (Rattus norvegicus [18]): 19%
- survival at 6 mg/kg (Mus musculus [19]): 50%
- Change in heart rate (Rattus norvegicus [20]): 8%
- Change in heart rate (Rattus norvegicus [21]): 29%
- Change in systolic BP (Rattus norvegicus [22]): -8%
- Ratio (Homo sapiens [23]): 5.3
- Change in heart rate (Rattus norvegicus [24]): 28%
- IC50 (Homo sapiens [25]): 5.6 µM
- inhibition at 500 µM (Homo sapiens [26]): 4.3%
